Read-outs that look alike come from different tables or passages of the source.
Columns and labels:
OCT2 = biological target: T1, OCT2 (Homo sapiens, UniProt O15244); assay: Inhibition of model substrate uptake in OCT2-overexpressing HEK293 cells; settings: OCT2; for (S,S)-Ethambutol inhibition [%] / ASP+ inhibition [%] / N-Ethyllidocaine inhibition [%] / inhibition at 5 min, 20 μM: 20 μM inhibitor, 5 min; for inhibition at 5 min, 20 μM: human
T1 sequence (O15244 1-555): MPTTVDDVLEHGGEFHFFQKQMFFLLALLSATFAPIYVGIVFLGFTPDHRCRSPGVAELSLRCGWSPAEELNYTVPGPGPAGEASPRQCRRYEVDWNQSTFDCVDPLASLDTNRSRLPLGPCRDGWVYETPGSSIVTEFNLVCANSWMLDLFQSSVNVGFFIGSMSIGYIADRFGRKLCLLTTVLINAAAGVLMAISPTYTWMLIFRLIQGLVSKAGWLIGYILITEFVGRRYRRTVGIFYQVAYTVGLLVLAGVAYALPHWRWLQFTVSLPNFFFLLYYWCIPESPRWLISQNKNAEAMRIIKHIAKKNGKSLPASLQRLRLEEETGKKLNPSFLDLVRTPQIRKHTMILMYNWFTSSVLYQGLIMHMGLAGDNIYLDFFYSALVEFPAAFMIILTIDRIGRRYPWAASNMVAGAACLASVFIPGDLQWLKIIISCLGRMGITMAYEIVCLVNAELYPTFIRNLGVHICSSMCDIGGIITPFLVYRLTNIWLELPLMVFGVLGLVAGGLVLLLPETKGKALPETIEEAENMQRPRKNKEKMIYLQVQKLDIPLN

OCT1 = biological target: T2, OCT1 (Homo sapiens, UniProt O15245); assay: Inhibition of model substrate uptake in OCT1-overexpressing HEK293 cells; format: cell-based; design: expressed in transfected cells; host or cells: HEK293
T2 sequence (O15245 1-554): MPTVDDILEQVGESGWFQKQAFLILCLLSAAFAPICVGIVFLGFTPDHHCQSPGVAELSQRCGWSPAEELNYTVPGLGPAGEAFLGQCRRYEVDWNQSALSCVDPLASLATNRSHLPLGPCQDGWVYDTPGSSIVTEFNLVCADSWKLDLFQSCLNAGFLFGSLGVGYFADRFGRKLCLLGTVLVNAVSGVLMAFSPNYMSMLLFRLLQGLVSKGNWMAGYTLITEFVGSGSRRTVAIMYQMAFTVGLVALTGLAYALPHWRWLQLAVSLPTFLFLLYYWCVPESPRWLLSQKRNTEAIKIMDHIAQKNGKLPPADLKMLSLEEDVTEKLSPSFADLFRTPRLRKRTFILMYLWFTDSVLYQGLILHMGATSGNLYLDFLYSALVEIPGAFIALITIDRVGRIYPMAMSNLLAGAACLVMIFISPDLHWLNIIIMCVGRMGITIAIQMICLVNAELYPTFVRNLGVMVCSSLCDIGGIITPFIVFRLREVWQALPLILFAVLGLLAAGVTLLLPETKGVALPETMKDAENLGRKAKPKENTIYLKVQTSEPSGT
Protocol: Koepsell and Gorbulev (University of Würzburg, Germany).
Fluorescence quantification was performed in technical duplicates.

OCT3 = biological target: T3, OCT3 (Homo sapiens, UniProt O75751); assay: Inhibition of model substrate uptake in OCT3-overexpressing HEK293 cells; format: cell-based
T3 construct: expressed in transfected cells; host or cells: HEK293
T3 sequence (O75751 1-556): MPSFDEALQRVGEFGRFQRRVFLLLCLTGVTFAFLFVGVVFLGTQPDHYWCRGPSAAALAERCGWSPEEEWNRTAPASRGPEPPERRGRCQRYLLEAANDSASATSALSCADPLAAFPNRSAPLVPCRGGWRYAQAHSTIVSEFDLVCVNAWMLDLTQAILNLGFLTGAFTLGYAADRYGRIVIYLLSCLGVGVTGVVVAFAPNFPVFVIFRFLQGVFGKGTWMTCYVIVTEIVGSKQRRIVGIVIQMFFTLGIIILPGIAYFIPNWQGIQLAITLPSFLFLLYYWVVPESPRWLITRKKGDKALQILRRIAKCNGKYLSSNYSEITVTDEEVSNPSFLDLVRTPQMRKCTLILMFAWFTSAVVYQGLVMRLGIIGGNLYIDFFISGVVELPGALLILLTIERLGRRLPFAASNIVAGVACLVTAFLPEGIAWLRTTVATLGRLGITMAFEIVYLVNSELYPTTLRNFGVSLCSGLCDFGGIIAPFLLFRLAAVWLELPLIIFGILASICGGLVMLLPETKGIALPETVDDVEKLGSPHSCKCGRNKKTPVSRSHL
In short: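 IC50 values were fitted with a Hill equation from net uptake, calculated as uptake in overexpressing HEK293 cells minus empty-vector control uptake. Cells were exposed for 5 min to 2 μM model substrate alone, with 20 μM inhibitor, or with a concentration series. Uptake was quantified by ASP^+ fluorescence or LC–MS/MS after lysis in 80% acetonitrile.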

[1] = OCT1, 20 μM inhibitor, 2 μM ASP+, 5 min, mean of three experiments
[2] = human, OCT1-overexpressing HEK293 cells, pH 7.4, probe (S,S)-ethambutol (2 μM), (S,S)-Ethambutol inhibition [%], OCT1, 20 μM inhibitor, 2 μM (S,S)-ethambutol, 5 min
[3] = human, OCT1-overexpressing HEK293 cells, pH 7.4, probe sumatriptan (2 μM), OCT1, 20 μM inhibitor, 2 μM sumatriptan, 5 min, read-out: Sumatriptan inhibition [%]
[4] = HEK293, 5 min, read-out: (S)-Zolmitriptan inhibition [%], OCT3, 20 μM inhibitor, 2 μM (S)-zolmitriptan, 5 min
[5] = HEK293, 5 min, read-out: (S,S)-Ethambutol inhibition [%], OCT3, 20 μM inhibitor, 2 μM (S,S)-ethambutol, 5 min
[6] = OCT3, 20 μM inhibitor, 2 μM ASP+, 5 min
[7] = OCT2-overexpressing HEK293 cells, pH 7.4, probe (S,S)-ethambutol (2 μM), (S,S)-Ethambutol inhibition [%], 2 μM (S,S)-ethambutol
[8] = OCT2-overexpressing HEK293 cells, pH 7.4, probe ASP+ (2 μM), ASP+ inhibition [%], 2 μM ASP+
[9] = OCT2-overexpressing HEK293 cells, pH 7.4, probe N-ethyllidocaine (2 μM), N-Ethyllidocaine inhibition [%], 2 μM N-ethyllidocaine
[10] = human, OCT1-overexpressing HEK293 cells, pH 7.4, probe ASP+ (2 μM), OCT1, 20 μM inhibitor, 2 μM ASP+, 5 min, mean of three experiments, read-out: ASP+ inhibition [%]
[11] = HEK293, OCT3, 20 μM inhibitor, 2 μM ASP+, 5 min, read-out: ASP+ inhibition [%]

Row | (S,S)-Ethambutol inhibition [%] (OCT2; 2 μM (S,S)-ethambutol) | ASP+ inhibition [%] (OCT2; 2 μM ASP+) | N-Ethyllidocaine inhibition [%] (OCT2; 2 μM N-ethyllidocaine) | ASP+ inhibition [%] (OCT1; [1]) | inhibition at 5 min, 20 μM (OCT1; [2]) [%] | inhibition at 5 min, 20 μM (OCT1; [3]) [%] | inhibition at 20 µM (OCT3; [4]) [%] | inhibition at 20 µM (OCT3; [5]) [%] | ASP+ inhibition [%] (OCT3; [6]) | inhibition at 5 min, 20 μM (OCT2; [7]) [%] | inhibition at 5 min, 20 μM (OCT2; [8]) [%] | inhibition at 5 min, 20 μM (OCT2; [9]) [%] | inhibition at 5 min, 20 μM (OCT1; [10]) [%] | inhibition at 20 µM (OCT3; [11]) [%] | Structure (SMILES) | further results
1 | 51.3 | 51.7 | 56.7 | -1.3 | 32 | 42.7 | 10.3 | 13.4 | -11.8 |  |  |  |  |  | C#CCN[C@@H]1CCc2ccccc21 [(R)-Rasagiline] | 
2 |  |  |  |  | -10.6 | -3.4 | -0.8 | 11.3 |  | 14.5 | 10.9 | 10.4 | 8.8 | 12.9 | CC(C)Cc1ccc([C@H](C)C(=O)O)cc1 [(S)-Ibuprofen] | 
3 |  |  |  |  | 100 | 96.6 | 37.9 | 48.6 |  | 13.5 | 99.6 | 58.2 | 76.9 | 23.5 | COc1ccccc1OCCNC[C@@H](O)COc1cccc2[nH]c3ccccc3c12 [(R)-Carvedilol] | 
4 |  |  |  |  |  |  |  |  |  |  |  |  |  |  | CCN(CC)CC#CCOC(=O)C(O)(c1ccccc1)C1CCCCC1 (stereo not shown) [Oxybutynine] | x-fold Stereoselectivity (OCT2; ratio of the IC50 values of the two enantiomers of the drug): 1.6 fold; selectivity ratio at 5 min (OCT1; human, OCT1-overexpressing HEK293 cells, pH 7.4, OCT1, ratio of the IC50 values of the two enantiomers of the drug, read-out: x-fold Stereoselectivity): 1.2; x-fold Stereoselectivity (OCT3; OCT3, ratio of the IC50 values of the two enantiomers of the drug): 1.6 fold; stereoselective inhibition of OCT3 (in words) (OCT3; ethambutol and zolmitriptan as substrates, 20 μM inhibitor): stereoselective inhibition
5 | 3.0 | -2.8 | -17.4 | 6.1 |  |  |  |  | 1.3 |  |  |  |  |  | CC(C)(C)NC[C@@H](O)c1ccc(O)c(CO)c1 [(S)-Salbutamol] | (S,S)-Ethambutol inhibition [%] (OCT1; OCT1, 20 μM inhibitor, 2 μM (S,S)-ethambutol, 5 min): 9.3%; Sumatriptan inhibition [%] (OCT1; OCT1, 20 μM inhibitor, 2 μM sumatriptan, 5 min): -10.2%; (S)-Zolmitriptan inhibition [%] (OCT3; OCT3, 20 μM inhibitor, 2 μM (S)-zolmitriptan, 5 min): -3.4%; (S,S)-Ethambutol inhibition [%] (OCT3; OCT3, 20 μM inhibitor, 2 μM (S,S)-ethambutol, 5 min): 14.5%

Row | Structure (SMILES) | (S,S)-Ethambutol inhibition [%] (OCT2; 2 μM (S,S)-ethambutol) | ASP+ inhibition [%] (OCT2; 2 μM ASP+) | N-Ethyllidocaine inhibition [%] (OCT2; 2 μM N-ethyllidocaine) | ASP+ inhibition [%] (OCT1; [1]) | inhibition at 5 min, 20 μM (OCT1; [2]) [%] | inhibition at 5 min, 20 μM (OCT1; [3]) [%] | inhibition at 20 µM (OCT3; [4]) [%] | inhibition at 20 µM (OCT3; [5]) [%] | ASP+ inhibition [%] (OCT3; [6]) | inhibition at 5 min, 20 μM (OCT2; [7]) [%] | inhibition at 5 min, 20 μM (OCT2; [8]) [%] | inhibition at 5 min, 20 μM (OCT2; [9]) [%] | inhibition at 5 min, 20 μM (OCT1; [10]) [%] | inhibition at 20 µM (OCT3; [11]) [%] | further results
6 | O=C(OC1C[N+]2(CCCOc3ccccc3)CCC1CC2)C(O)(c1cccs1)c1cccs1 [(R)-Aclidinium] | -0.8 |  |  |  |  |  | 43.3 | 62.8 |  |  |  |  |  |  | inhibition at 5 min, 20 μM (OCT2; pH 7.4, ASP+ inhibition [%], 2 μM ASP+): 108%; inhibition at 5 min, 20 μM (OCT2; pH 7.4, N-Ethyllidocaine inhibition [%], 2 μM N-ethyllidocaine): 69.1%; inhibition at 5 min, 20 μM (OCT1; human, pH 7.4, (S,S)-Ethambutol inhibition [%], OCT1, 20 μM inhibitor, 2 μM (S,S)-ethambutol, 5 min): 98.8%; inhibition at 5 min, 20 μM (OCT1; human, pH 7.4, OCT1, 20 μM inhibitor, 2 μM ASP+, 5 min, mean of three experiments, read-out: ASP+ inhibition [%]): 71.6%; inhibition at 5 min, 20 μM (OCT1; human, pH 7.4, OCT1, 20 μM inhibitor, 2 μM sumatriptan, 5 min, read-out: Sumatriptan inhibition [%]): 93.6%; inhibition at 20 µM (OCT3; HEK293, read-out: ASP+ inhibition [%], OCT3, 20 μM inhibitor, 2 μM ASP+, 5 min): 37.1%

Source: paper PMC10698726 (Molecular Pharmaceutics, 2023)
